Data set [1] can be described thus: Dose escalation study, single/multiple dose and loading dose regimens: safety and tolerability. The class given is in vivo. How it is done: The pharmacokinetics (PK), safety, and tolerability of single and multiple doses of CEM-102 (sodium fusidate) were evaluated in a single-center, Phase 1, double-blind, randomized, placebo-controlled, dose-escalating study in 32 healthy adult subjects enrolled in 4 dosage groups (550, 1100, 1650, and 2200 mg). In each cohort, six subjects were to receive CEM-102 and two were to receive placebo in a single dose (Period 1) and then multiple doses BID for a total of 11 doses over 5.5 days (Period 2). The two dosing periods were separated by a seven-day washout period between the single dose in Period 1 and the first dose in Period 2.
Dosing proceeded as planned for Cohorts 1 to 3; however, Cohort 4 received only the single dose of 2200 mg (Period 1), because dose-limiting gastrointestinal intolerance was observed after multiple doses of 1650 mg BID in Cohort 3. Period 2 for Cohort 4 evaluated an initial loading dose regimen, and a second loading dose regimen was evaluated in an additional cohort (Cohort 5) per a protocol amendment.
The protocol was amended for assessment of the safety, tolerability, and PK of front-loaded dose regimens comprised of a higher dose of CEM-102 on Day 1 followed by lower doses for the subsequent 6.5 days. All loading dose regimens employed multiple doses lower than the maximum tolerated dose (MTD) established in the first part of the study (1650 mg administered as multiple doses).
The loading dose regimens assessed were 1100 mg BID on Day 1 and 550 mg BID on the following 6.5 days in Period 2 of Cohort 4 and 1650 mg BID on Day 1 and 825 mg BID on the following 6.5 days in Cohort 5.

Data set [2] deals with 217 S. aureus Canadian isolates. In kind it is cell-based. To be noted: 217 Canadian isolates. How it is done:
CLSI broth microdilution (BMD) and anaerobic agar dilution (AD) methods were performed. Modifications of standard test methods included adding 10% human serum, adjusting the medium pH to 5, 6, and 8, and synergy was assessed by the checkerboard method.

Data set [3] has as its system methicillin-resistant S. aureus (MRSA) strain USA 300. As to the kind of experiment: Hollow fiber pharmacodynamic model, resistance potential. The class given is cell-based. As to the method: A hollow fiber model was used to evaluate CEM-102 resistance potential in methicillin-resistant S. aureus (MRSA) strain USA 300 (Network of Antimicrobial Resistance in Staphylococcus aureus (NARSA), Chantilly, Va.). USA 300 is a highly virulent strain of MRSA and is the most common community-associated MRSA isolate in the USA. MIC values were determined in accordance with Clinical and Laboratory Standards Institute (CLSI).
The hollow fiber model comprised a two-compartment hollow fiber model (Louie et al. Antimicrob Agents Chemother 52:2486-2496(2008)) consisting of a volume of 15 mL in the central compartment, with multiple ports for the removal of broth, delivery of antibiotics, and collection of bacterial and antimicrobial samples. […] All experiments were performed in duplicate.
Hollow fibers contain 15 ml of media was prepared and inoculated with 10^6 colony forming units (CFU)/mL USA 300 bacteria. One of three different dosing regimens of […] was then applied to the fibers: (1) […] q12h; (2) 1200 mg/ml×2, followed by […], q12h; (3) 1500 mg/ml×2, followed by […], q12h.

The mark [4] stands for this setting: after the single dose of 2200 mg.

“Also recorded” adds a separate entry of the source.

On to `CC(=O)O[C@H]1C[C@@]2(C)[C@@H](C[C@@H](O)[C@H]3[C@@]4(C)CC[C@@H](O)[C@@H](C)[C@@H]4CC[C@@]32C)/C1=C(\CCC=C(C)C)C(=O)O` [CEM-102, Sodium fusidate], for which the “maximum tolerated dose (MTD)” value in data set [1] (administered as multiple doses) was determined as 1650 mg. Moreover, the subjects reporting nausea was found to be 9 subjects in data set [1] (after multiple doses, all cohorts); 2 subjects in data set [1] (multiple doses 550 mg BID); 2 subjects in data set [1] (multiple doses 1100 mg BID); 5 subjects in data set [1] (multiple doses 1650 mg BID). In addition, the “changes in physical examinations, vital signs, ECGs, or laboratory parameters” value in data set [1] (after single doses) is “no clinically significant changes”; in data set [1] (single doses up to 2200 mg, multiple doses up to 1650 mg for 5.5 days, or loading dose regimens for 7.5 days) it was “no clinically significant changes”. Moreover, in data set [1] (setting [4]), the “subjects with nausea alone” value is 2. Besides, in data set [1] (setting [4]), the “subjects with nausea and vomiting” value was found to be 1 subject. The safety and tolerability entry in data set [1] (doses up to 1650 mg BID for 5.5 days) is “safe and generally well tolerated”. The “Adverse Event (treatment-emergent, per subject and day)” value is listed as “Urinary; also recorded: Nausea; also recorded: Constipation” in data set [1] (loading dose regimen 1100/550 mg); “Nausea; also recorded: Epigastric pain; also recorded: Dizziness; also recorded: Elevated BP; also recorded: Headache; also recorded: Tachycardia; also recorded: Pharyngitis; also recorded: Hoarseness; also recorded: Sore throat” in data set [1] (multiple dose 550 mg BID cohort, blinded listing); “Heartburn; also recorded: Constipation; also recorded: Skin Irritation; also recorded: Nausea; also recorded: Dizziness; also recorded: Viral URI” in data set [1] (multiple dose 1100 mg BID cohort, blinded listing); “None” in data set [1] (single dose 1650 mg); “Nausea; also recorded: Vomiting; also recorded: Abdomen distention” in data set [1] (single dose 2200 mg). Also, the tolerability result in data set [1] (loading dose regimens 1100/550 mg and 1650/825 mg, total 7.5 days) is “very well tolerated”; in data set [1] (single doses up to 2200 mg), “safe and well tolerated”. The subjects with vomiting in data set [1] (multiple doses 1650 mg BID) was found to be 4 subjects. Further, the “gastrointestinal AEs” value in data set [1] (single dose, 550, 1100 or 1650 mg cohorts) is recorded as “no gastrointestinal AEs”. The “overall safety and tolerability” value in data set [1] (whole study) is “safe and generally well tolerated”. The “serious or life-threatening adverse events” value in data set [1] (whole study) is “No serious or life-threatening adverse events”. Further, the “isolates with MICs of ≧2.0 μg/mL (classified as resistant)” value in data set [2] came to 6.5%. Moreover, the “reduction of bacterial counts” value in data set [3] (1200 mg×2 then 600 mg q12h) came out at 2 logs. In data set [3] (1500 mg×2 then 600 mg q12h), the “time until which resistance was suppressed” value is reported as more than 72 h.

These data come from US8450300B2 (priority 2009, dated 2013).
